# Source: US20050143358A1, “Methods for reducing body fat using vitamin D compounds” (Deltanoid Pharmaceuticals, Inc., priority 2003, published 2005)
# “Also recorded” adds a separate entry of the source.
# B1: hPTH: human parathyroid hormone hPTH, administered sub-cutaneously at 20 μg/kg/day (peptide, UniProt P01270 32-115, looked up)
# Parathyroid hormone: SVSEIQLMHNLGKHLNSMERVEWLRKKLQDVHNFVALGAPLAPRDAGSQRPRKKEDNVLVESHEKSLGEADKADVNVLTKAKSQ
# modifications: Parathyroid hormone
# notes: human parathyroid hormone hPTH, administered sub-cutaneously at 20 μg/kg/day
# Key:
# [1] = system: ovariectomized rats; assay: Whole body DEXA body composition in ovariectomized rats (Example 3); format: in vivo, rat
# Description: FIG. 1 is a flow-chart illustrating the experimental design of the investigations described herein. Female Sprague Dawley rats (Taconic, German Town, N.Y.) were placed on a purified diet of 0.5% calcium and 0.4% phosphorus (AIN-76A Rodent Diet, prepared by Research Diet, Inc., New Brunswick, N.J.). At 4 months of age, a first subset (20) of the animals was sham-operated while a second subset (90) was ovariectomized. The time of ovariectomy is designated as week 0. Eight weeks after this surgery, the ovariectomized animals were divided into experimental groups receiving the following dosing regimen: 2MD, at doses of 0.5, 1.0, 2.5, 5.0 and 10 ng/kg/day; calcitriol (the active form of vitamin D), at doses of 50 ng/kg/day and 200 ng/kg/day; and human parathyroid hormone hPTH, at doses of 20 μg/kg/day. The 2MD and the calcitriol were administered orally in 100 μl of vegetable oil delivered to the back of the tongue by a throat tube, while the hPTH was administered sub-cutaneously.
# Serum calcium was measured by tail bleeding at week 14 ([…]), week 21 and week 24. At week 24, the animals were sacrificed and the following endpoint measurements were taken: whole body DEXA; bone markers: osteocalcin and deoxypyridinoline (DPD); peripheral quantitative computed tomography (pQCT) of the distal femoral metaphysis (DFM) and femoral shaft (FS); micro-computerized tomography (micro-CT) of the DFM; serum parathyroid hormone (PTH); histomorphometry of the proximal tibial metaphysis (PTM), lumbar vertebra 3 (LV3) and trabecular separation (TS); and bone strength of the DFM, FS and lumbar vertebra 5 (LV5).
# At week 0, the animals underwent surgical treatment as explained above. The animals were allowed to recuperate for 8 weeks before the dosing regimen began (0 wk). At 24 weeks post-surgery the animals were sacrificed and endpoint measurements were taken as explained above.
# [2] = system: osteoblast cell line; details: Yamamoto et al., J. Biol. Chem. 278, 31756 (2003); cited from earlier work
# [3] = studies described in Shevde et al.; cited from earlier work
# [4] = cited from earlier work
# [5] = system: human leukemia cells; details: biological testing of 19-nor-analogs; cited from earlier work
# [6] = 10 ng/kg/day oral, DEXA, FIG. 3
# [7] = 10 ng/kg/day oral, DEXA, FIG. 4
# [8] = doses of at least 2.5 ng/kg/day, DEXA, FIG. 4
# [9] = 200 ng/kg/day oral, DEXA, FIG. 4
molecule,measurement,setting,value
"C=C1[C@H](O)CC(=C/C=C2\CCC[C@]3(C)[C@@H]([C@@H](C)CCCC(C)(C)O)CC[C@@H]23)C[C@H]1O [2MD, 2-methylene-19-nor-(20S)-1α,25 dihydroxyvitamin D3]",percent body fat compared to ovariectomized/vehicle controls,"[1]; 0.5 ng/kg/day oral, DEXA, FIG. 3",little to no effect; also recorded: noticeable trend for a reduced increase
same,percent body fat compared to ovariectomized/vehicle controls,"[1]; 1 ng/kg/day oral, DEXA, FIG. 3",little to no effect
same,percent body fat compared to ovariectomized controls,"[1]; 5 ng/kg/day oral, DEXA, FIG. 3",significant decrease
same,body fat component compared to ovariectomized-vehicle controls,"[1]; 5 ng/kg/day oral, DEXA, FIG. 4",significantly less body fat
same,bone mineral content (BMC) component compared to sham-operated controls,"[1]; 5 ng/kg/day oral, DEXA, FIG. 4",an increase
same,lean component compared to sham-operated controls,"[1]; 5 ng/kg/day oral, DEXA, FIG. 4",an increase
same,total body weight compared to sham/vehicle controls,"[1]; 5 ng/kg/day oral, DEXA, FIG. 4",significantly increased
same,reduction in body fat compared with calcitriol at 200 ng/kg/day,"[1]; 5 ng/kg/day oral, FIG. 3",as great an effect
same,percent body fat compared to ovariectomized controls,[1]; [6],significant decrease
same,percent body fat compared to sham-operated controls,[1]; [6],noticeably less percent body fat
same,body fat component compared to ovariectomized controls,[1]; [7],significantly lower
same,body fat component compared to sham-operated controls,[1]; [7],less body fat
same,body weight compared to ovariectomized controls,[1]; [7],significantly reduced
same,lean body weight plus bone mineral content relative to sham operated animals,[1]; [7],increased
same,lean body weight relative to sham operated animals,[1]; [7],increased
same,total body weight compared to sham-control,[1]; [7],virtually the same
same,decrease in the fat component compared with the group receiving 200 ng/kg/day calcitriol,"[1]; 10 ng/kg/day oral, FIG. 3",greater decrease
same,increase in lean body component and bone mineral component compared with calcitriol at 50 ng/kg/day,"[1]; DEXA, FIG. 4",more positive effect
same,body fat content,"[1]; OVX rats, 2MD 10 ng/kg/day oral, DEXA at week 24 (sham-operated group 25%)",20%
same,bone mineral content (BMC) relative to sham-operated or ovariectomized controls,[1]; [8],noticeable increase
same,lean body weight relative to sham-operated or ovariectomized controls,[1]; [8],noticeable increase
same,fat component relative to OVX-controls,"[1]; starting at the 1 ng/kg/day dose, DEXA, FIG. 4",trend for a decrease
same,activity relative to calcitriol in inducing genes in the osteoblast cell line,[2],at least 100 fold
same,intestinal calcium transport activity,[3],low
same,bone calcium mobilization activity,[4]; studies described in Shevde et al.,high
"C[C@H](CCCC(C)(C)O)[C@H]1CC[C@H]2/C(=C/C=C3C[C@@H](O)C[C@H](O)C3)CCC[C@]12C [1α,25-dihydroxy-19-nor-vitamin D3, reference compound]",calcium mobilizing activity,[4]; biological testing of 19-nor-analogs,very low
same,potency in inducing cellular differentiation,[5],high potency
"C=C1/C(=C\C=C2/CCC[C@]3(C)[C@@H]([C@H](C)CCCC(C)(C)O)CC[C@@H]23)C[C@@H](O)C[C@@H]1O [calcitriol, 1α,25-dihydroxyvitamin D3, reference compound]",percent body fat compared to ovariectomized controls,"[1]; 50 ng/kg/day oral, DEXA, FIG. 3",at most only a minor difference
same,percent body fat compared to ovariectomized controls,"[1]; 200 ng/kg/day oral, DEXA, FIG. 3",significant decrease
same,body fat compared to ovariectomized controls,[1]; [9],less body fat
same,body fat compared to sham-operated controls,[1]; [9],noticeable increase in body fat
same,body weight compared to ovariectomized controls,"[1]; calcitriol group, DEXA, FIG. 4",only a tendency for reduction
same,overall body weight compared to sham-controls,"[1]; calcitriol group, DEXA, FIG. 4",increase in overall body weight
same,reduction of total body weight,[1]; even at much higher doses than 2MD,did not act to significantly reduce
B1,percent body fat compared to ovariectomized controls,"[1]; 20 μg/kg/day sub-cutaneously, DEXA, FIG. 3",at most only a minor difference
